Earlier results as cited in US20160271257A1, “Low Molecular Weight Immune-Modulators As Adjuvants for Specific Immunotherapy” (PLS-DESIGN GMBH, priority 2013, published 2016).
Converted amounts (≈) assume the structure as drawn. “Also recorded” adds a separate entry of the source. Like-named read-outs stand apart in the source and are kept apart here. Ends that are not written are not given here.

Experiments:
[1] = 10 ng with 100 μg OVA
[2] = mouse, in vivo
[3] = i.p. 5 μg/kg every 2 days
[4] = individuals not adhering to dietary calcium restriction
[5] = not given; remark: listed apart in the source
[6] = not given; remark: listed apart in the source
NF-kappa B translocation = conditions: read-out: concentration for 50% inhibition of NF-kappa B translocation
[7] = system: isolated rat cardiomyocytes; conditions: for glutathione repletion and unmasking of TNFR2-mediated effects (reproducing in vivo NAC treatment): incubation 2-3 hours, 50 μmol/L GSM, 50 μmol/L NAC or 10 mmol/L GSH; for protection against the deleterious effects of TNF-alpha on contraction: preincubation 2-3 hours, exogenously added, 50 μM GSM
[8] = not given; remark: listed apart in the source
[9] = in most of the subjects
[10] = 3-day NAC 120 mg/kg/day, 2-month post-myocardial infarction rats
[11] = 8 days
[12] = oral 1800 mg/day added to standard therapy
[13] = 600 mg to 1000 mg three times daily, 4 weeks
C3aR = target: T1, C3aR (Homo sapiens, UniProt Q16581); conditions: human neutrophils; read-out: IC50 of inhibition of C3a-induced calcium mobilization
T1 sequence (Q16581 1-482): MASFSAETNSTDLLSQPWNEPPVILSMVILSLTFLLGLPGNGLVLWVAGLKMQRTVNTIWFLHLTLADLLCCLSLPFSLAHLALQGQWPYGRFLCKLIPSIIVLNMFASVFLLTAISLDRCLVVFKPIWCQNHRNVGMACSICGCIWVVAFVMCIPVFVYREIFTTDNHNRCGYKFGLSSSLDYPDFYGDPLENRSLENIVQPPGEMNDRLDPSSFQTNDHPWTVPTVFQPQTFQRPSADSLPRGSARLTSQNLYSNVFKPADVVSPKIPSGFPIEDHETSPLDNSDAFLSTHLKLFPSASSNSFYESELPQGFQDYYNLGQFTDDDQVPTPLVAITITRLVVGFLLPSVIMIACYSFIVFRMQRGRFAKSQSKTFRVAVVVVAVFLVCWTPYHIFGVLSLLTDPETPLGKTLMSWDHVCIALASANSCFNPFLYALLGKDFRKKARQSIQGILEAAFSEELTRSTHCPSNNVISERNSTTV

[14] = not given; remark: listed apart in the source
[15] = 2 μg/day, 3 months
[16] = for time detectable in serum by HPLC: rats
[17] = topical, used clinically for years
[18] = topical pretreatment
[19] = six months, budesonide 800 μg/d and cholecalciferol 500 IU
C3 [20] = conditions: sera from cynomolgus monkeys; read-out: IC50 of haemolytic activity
C3 [21] = conditions: 10 mg/kg i.v. bolus then 60 μg/kg/min infusion
[22] = system: C3 proteins from lower mammalian species, C4 and C5
[23] = in vivo
[24] = system: TNFR1-mediated activation of NF-kappa B
[25] = in vivo; remark: listed apart in the source
CD3 = target: T2, CD3 (Homo sapiens, UniProt P07766); conditions: in vivo
T2 construct: endogenous in cells; host or cells: T cells of type 1 diabetes patients (clinical studies reported in the literature)
T2 sequence (P07766 23-207): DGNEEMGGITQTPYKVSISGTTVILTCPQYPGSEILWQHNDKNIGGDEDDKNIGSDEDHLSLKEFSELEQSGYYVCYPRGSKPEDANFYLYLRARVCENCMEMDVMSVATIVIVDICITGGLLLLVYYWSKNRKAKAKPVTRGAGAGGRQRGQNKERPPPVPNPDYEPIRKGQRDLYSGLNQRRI
T2 sequence (P04234 22-171 partner): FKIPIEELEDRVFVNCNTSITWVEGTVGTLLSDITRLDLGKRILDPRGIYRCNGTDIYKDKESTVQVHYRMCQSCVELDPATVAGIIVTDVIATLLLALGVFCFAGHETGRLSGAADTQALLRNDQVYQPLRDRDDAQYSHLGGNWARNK
T2 sequence (P09693 23-182 partner): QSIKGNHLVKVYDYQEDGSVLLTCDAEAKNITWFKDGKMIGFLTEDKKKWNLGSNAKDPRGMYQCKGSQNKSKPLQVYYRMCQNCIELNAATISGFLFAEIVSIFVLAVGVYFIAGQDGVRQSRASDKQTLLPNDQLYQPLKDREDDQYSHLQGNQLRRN
T2 sequence (P20963 22-164 partner): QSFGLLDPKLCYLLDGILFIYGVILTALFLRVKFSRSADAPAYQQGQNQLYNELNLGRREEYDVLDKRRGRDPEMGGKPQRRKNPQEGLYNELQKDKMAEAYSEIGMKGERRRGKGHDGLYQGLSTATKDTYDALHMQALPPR

[26] = not given; remark: listed apart in the source
[27] = not given; remark: listed apart in the source
[28] = oral 4,000-40,000 IU/day, 28 weeks

C=C1/C(=C\C=C2/CCC[C@]3(C)[C@@H]([C@H](C)CCCC(C)(C)O)CC[C@@H]23)C[C@@H](O)C[C@@H]1O [1,25-(OH)2D3, 1α,25-dihydroxyvitamin D3]
airway hyper-responsiveness [1]: significantly inhibited | serum OVA-specific IgE levels [1]: potentiated the reduction; also recorded: significant reduction | development / onset of diabetes [2]: prevented | progression of arthritis and hypercalcemia (diet, 20 ng/mouse/day): effective in inhibiting the progression of arthritis without producing hypercalcemia | symptoms of Lyme arthritis (B. burgdorferi infection) (dietary supplementation): minimized or prevented | symptoms of collagen-induced arthritis (dietary supplementation): prevented | treated mice in which appearance of paralysis was prevented [3]: 70% | adverse effect reported [4]: hypercalcaemia; also recorded: hypercalcemia

C=C1CC[C@H](O)C/C1=C/C=C1\CCC[C@]2(C)[C@@H]([C@H](C)CCCC(C)(C)O)CC[C@@H]12 [25-OH-D3, 25-hydroxyvitamin D3]
serum levels of 25-OH-D3 to be kept below to avoid toxicity ([5]; based on experiments in the rat): below 250 ng/ml | serum levels of 25-OH-D3 at which toxicity occurs ([5]; rat, in vivo): ≥ 500 ng/mL | adverse effects ([6]; 1,000 to 40,000 IU/day): no adverse effects | disease progression and relapse activity [6, 28]: not affected | number of new lesions assessed by MRI [6, 28]: significant decrease

CC(=O)Oc1ccccc1C(=O)O [ASA, acetylsalicylic acid]
IC50 (NF-kappa B translocation): ~3000 µM

N[C@@H](CCC(=O)N[C@@H](CS)C(=O)NCC(=O)O)C(=O)O [GSH, glutathione]
glutathione repletion and unmasking of TNFR2-mediated effects (reproducing in vivo NAC treatment) [7]: could not reproduce

CSC[C@H](NC(=O)CC[C@H](N)C(=O)O)C(=O)NCC(=O)O [GSM, S-methylglutathione]
glutathione repletion and unmasking of TNFR2-mediated effects (reproducing in vivo NAC treatment) [7]: achieved | protection against the deleterious effects of TNF-alpha on contraction [7]: protected | solubility in water [8]: 8.1 mM (≈ 2600 µg/mL)

CC(=O)N[C@@H](CS)C(=O)O [NAC, N-acetyl-L-cysteine]
highest non-toxic dose [9]: 800 mg/m^2/day | GSH content of the left ventricle, % of control level in sham rats [10]: 75% | glutathione repletion and unmasking of TNFR2-mediated effects (reproducing in vivo NAC treatment) [7]: could not reproduce | protection against the deleterious effects of TNF-alpha on contraction [7]: not protected | decrease of ovalbumin-specific IgE and IgG1 ([11]; 0.5 g/liter in drinking water): ~30% | decrease of ovalbumin-specific IgE and IgG1 responses ([11]; 1.0 g/liter in drinking water): more than 70% | primary end points including vital capacity [12]: better | safety and effect on blood neutrophil GSH, airway neutrophil count and elastase activity [13]: safe and effective | cytotoxicity to resting T cells (peripheral blood T cells; 1 mM to 20 mM, 3 days, seven donors): nontoxic | effect on T cell function and growth (peripheral blood T cells; 10 mM): effective enhancer of T cell function and enhancer of growth

N=C(N)NCCCC(NC(=O)COCC(c1ccccc1)c1ccccc1)C(=O)O [SB290157, N^2-[(2,2-dipheneylethoxy)acetyl]-L-arginine]
IC50 (C3aR): 0.028 µM | in vivo half-life [14]: short | solubility in DMSO [8]: 5000 µg/mL (≈ 12.1 mM) | solubility in saline solution containing 5% ethanol and 10% Cremaphor-EL [8]: at least 10 mg/ml

C=C1/C(=C\C=C2/CCC[C@]3(C)[C@@H]([C@H](C)CCCC(C)C)CC[C@@H]23)C[C@@H](O)C[C@@H]1O [alfacalcidiol]
patients going into remission [15]: 45% | patients with improvement of disease activity [15]: 89%

C=C1/C(=C\C=C2/CCC[C@]3(C)[C@@H]([C@H](C)/C=C/[C@@H](O)C4CC4)CC[C@@H]23)C[C@@H](O)C[C@@H]1O [calcipotriol]
times less effect on calcium metabolism compared to 1,25-(OH)2D3 (calcium metabolism; activation of calcium absorption and bone calcium mobilization): 100-200 times | effects of the metabolites, times weaker than those of the parent compound (calcium metabolism; in vivo): 100 times | time detectable in serum by HPLC ([16]; i.v. 10 μg/kg): up to 5 min | time detectable in serum by HPLC ([16]; i.v. 50 μg/kg): up to 10 min | half-life in circulation ([16]; rat, in vivo): short; also recorded: very short | rate of clearance, times higher than for 1,25-(OH)2D3 ([16]; rat, in vivo): approximately 140 times | systemic toxicity [17]: without systemic toxicity | CD4+CD25+ Tregs [18]: induced | antigen-specific CD8+ T cell priming [18]: abolished | solubility in ethanol [8]: approx. 50 mg/ml | solubility in a 1:5 solution of ethanol:PBS, pH 7.2 ([8]; pH 7.2): approx. 0.15 mg/ml

C=C1CC[C@H](O)C/C1=C/C=C1\CCC[C@]2(C)[C@@H]([C@H](C)CCCC(C)C)CC[C@@H]12 [cholecalciferol]
children who experienced asthma exacerbation [19]: 17%

CC[C@H](C)[C@H](N)C(=O)N[C@H]1CSSC[C@@H](C(=O)N[C@H](C(N)=O)[C@@H](C)O)NC(=O)[C@H](CCCN=C(N)N)NC(=O)[C@H](Cc2cnc[nH]2)NC(=O)[C@H](Cc2cnc[nH]2)NC(=O)CNC(=O)[C@H](Cc2c[nH]c3ccccc23)NC(=O)[C@H](CC(=O)O)NC(=O)[C@H](CCC(N)=O)NC(=O)[C@H](C(C)C)NC(=O)[C@H](C(C)C)NC1=O [compstatin]
IC50 (C3 [20]): […] | effect in sepsis model (C3 [21]): decrease the procoagulant response and to confer organ protection | binding to C3 from lower mammalian species or to C4 and C5 [22]: does not bind

O=C(O)c1ccccc1O [salicylate]
levels at which tinnitus may occasionally occur [23]: ≥ 95000 ng/mL

O=C(O)c1ccccc1O [salicylic acid]
solubility in ethanol/water (10:90 vol) [8]: 21 mM (≈ 2900 µg/mL) | solubility in ethanol/water (20:80 vol) [8]: 35 mM (≈ 4830 µg/mL) | solubility in ethanol/water (30:70 vol) [8]: 81 mM (≈ 11200 µg/mL) | solubility in ethanol/water (40:60 vol) [8]: 277 mM (≈ 38300 µg/mL) | solubility in ethanol/water (50:50 vol) [8]: 526 mM (≈ 72700 µg/mL) | solubility in water ([8]; salicylic acid): 14 mM (≈ 1930 µg/mL)

O=C([O-])c1ccccc1O.[Na+] [sodium salicylate]
dose required for inhibition of TNFR1-mediated activation of NF-kappa B [24]: 10 to 20 mM

Ac-Phe-[Orn-Pro-DCha-Trp-Arg] [PMX53]
half-life [25]: 1.17 h

Otelixizumab: Fc-mutated anti CD3 mAb
clinical efficacy in phase III studies (CD3): failed to show clinical efficacy

R121D/Y124D: human IL-4 double mutant antagonizing IL-4 and IL-13
cutaneous wheal response and circulating allergen-specific IgE (IL-4 and IL-13; subcutaneous, 6 weeks or more): reduced | allergen-induced airways hyper-responsiveness (IL-4 and IL-13; subcutaneously or via nebulisation): protect

TFGLQLELT [nonapeptide 180-188]
rats showing clinical symptoms of adjuvant arthritis during pretreatment period ([26]; i.p. 100 μg in FIA): none of the rats | rats completely protected against subsequently induced adjuvant arthritis ([26]; three times 100 μg in FIA): 11 out of 16

Teplizumab: humanized anti CD3 mAb mutated to prevent binding to Fc receptors
clinical efficacy in phase III studies (CD3): failed to show clinical efficacy

vitamin D
relative risk of type 1 diabetes over the subsequent 30 years ([27]; doses of exactly 50 μg/day): 0.22 | relative risk of type 1 diabetes over the subsequent 30 years ([27]; regular, doses of over 50 μg/day (2000 IU/d)): 0.14 | relative risk of developing type 1 diabetes ([27]; supplements given irregularly): 0.16 | relative risk of developing type 1 diabetes ([27]; supplements given regularly): 0.12
